Source: patent US11123340B2, “Small-molecule UT-A-selective urea transport inhibitors” (The Regents of the University of California, priority 2014, dated 2021)
In brackets after ≈: the same amount, converted by molar mass. Where two headings read alike, the source gives them in different places.

Experiments:
Solubility = assay type: physicochemical
Experimental: Several vehicles and administration routes were tested in order to give predicted therapeutic inhibitor concentrations in blood and urine. […] Because of the alkaline pH of the administered compounds the vehicle control for UTAinh-F11 was 20% dimethylacetamide and 1.2 mg/mL NaHCO3 in saline to give identical pH. […] Urine levels of UTAinh-F11 were >3 μM over 6 h.
Compound toxicity was evaluated by compound incubation for 24 h with MDCK cell cultures followed by Alamar blue assay. […] To assess potential ion channel off-target effects, short-circuit current was measured in MDCK cells in response to cAMP (forskolin) and calcium (ATP) agonists (FIG. 5C, right), which depends on the actions of multiple anion (CFTR, calcium-activated chloride channels) and cation (K^+, Na^+) channels.

UT-A1 = target: T1, UT-A1 (Rattus norvegicus, UniProt Q62668); test: Transepithelial urea transport in UT-A1-expressing MDCK cells on porous filters; assay type: cell-based; conditions: 3 μM inhibitor, forskolin 10 μM
T1 construct: expressed in transfected cells; host or cells: MDCK cells
T1 sequence (Q62668 1-929): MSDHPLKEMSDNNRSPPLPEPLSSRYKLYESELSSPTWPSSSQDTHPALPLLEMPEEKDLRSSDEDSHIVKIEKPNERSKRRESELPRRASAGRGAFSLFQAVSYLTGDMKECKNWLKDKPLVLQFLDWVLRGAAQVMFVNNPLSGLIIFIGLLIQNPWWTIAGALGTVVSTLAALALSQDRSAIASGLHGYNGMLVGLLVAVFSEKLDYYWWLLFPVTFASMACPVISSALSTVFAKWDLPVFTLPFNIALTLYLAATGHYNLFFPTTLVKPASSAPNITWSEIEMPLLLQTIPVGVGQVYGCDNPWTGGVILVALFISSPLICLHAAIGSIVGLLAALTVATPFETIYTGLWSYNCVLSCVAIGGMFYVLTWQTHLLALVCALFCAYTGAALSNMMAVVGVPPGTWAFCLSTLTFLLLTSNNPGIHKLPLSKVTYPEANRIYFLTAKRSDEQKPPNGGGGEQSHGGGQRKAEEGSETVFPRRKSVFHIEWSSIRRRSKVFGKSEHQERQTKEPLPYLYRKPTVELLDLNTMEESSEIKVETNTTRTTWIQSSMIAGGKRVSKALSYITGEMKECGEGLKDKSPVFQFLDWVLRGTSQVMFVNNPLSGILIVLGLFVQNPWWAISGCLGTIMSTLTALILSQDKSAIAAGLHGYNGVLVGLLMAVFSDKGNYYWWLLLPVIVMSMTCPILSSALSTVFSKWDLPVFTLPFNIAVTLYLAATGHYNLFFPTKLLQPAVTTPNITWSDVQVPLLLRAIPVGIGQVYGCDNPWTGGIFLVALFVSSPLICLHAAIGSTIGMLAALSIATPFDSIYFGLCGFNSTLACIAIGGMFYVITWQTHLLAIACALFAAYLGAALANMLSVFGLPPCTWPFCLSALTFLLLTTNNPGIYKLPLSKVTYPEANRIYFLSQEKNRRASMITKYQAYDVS
Experimental: UT-A1 expressing MDCK cells were grown on 12-mm diameter collagen-coated Transwell inserts (0.4 μm pore size; Costar, Costar, N.Y.) to form tight monolayers (resistance>500 Ωcm^2), as described (see, e.g., Levin et al. (2007) FASEB J. 21, 551-563). Urea flux in the basolateral-to-apical direction was measured in response to a 15 mM urea gradient in which PBS containing forskolin (10 μM), with or without UT-A1 inhibitor and 0.7 mM phloretin, was added to both the apical-facing (0.2 mL) and basal-facing (2 mL) surfaces. After 30 min the basal-facing solution was replaced by PBS containing test compound+15 mM urea. Apical fluid samples (5 μL) were collected at specified times for enzymatic assay of urea (QUANTICHROME Urea Assay Kit; BioAssay Systems, Hayward, Calif.). To measure inhibitor permeability across MDCK cell layers, compounds (20 μM) were added on the basal-facing surface and fluid samples (20 μL) from the apical-facing surface were collected at different time points and analyzed by LC/MS.
Transepithelial urea transport from the basolateral to the apical solution was measured by enzymatic assay of urea in the apical solution following urea addition to the basal-facing solution.

rat UT-B = target: T2, rat UT-B (Rattus norvegicus, UniProt P97689); test: UT-B inhibition, erythrocyte lysis assay; assay type: cell-based
T2 construct: endogenous in cells; host or cells: rat erythrocytes (whole rat blood)
T2 sequence (P97689 1-384): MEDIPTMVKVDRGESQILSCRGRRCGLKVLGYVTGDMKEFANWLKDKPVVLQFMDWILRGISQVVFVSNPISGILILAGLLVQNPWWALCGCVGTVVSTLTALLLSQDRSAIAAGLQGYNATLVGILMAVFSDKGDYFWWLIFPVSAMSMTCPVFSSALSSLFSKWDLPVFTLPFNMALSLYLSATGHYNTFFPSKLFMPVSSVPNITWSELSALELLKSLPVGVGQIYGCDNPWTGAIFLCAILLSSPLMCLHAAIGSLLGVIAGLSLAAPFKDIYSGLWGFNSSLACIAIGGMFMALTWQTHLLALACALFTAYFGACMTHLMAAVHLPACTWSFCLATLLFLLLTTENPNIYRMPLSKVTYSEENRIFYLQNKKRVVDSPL
Experimental: As described (see, e.g., Levin et al. (2007) FASEB J. 21, 551-563), whole rat blood was diluted to a hematocrit of ˜1.5% in PBS containing 1.25 M acetamide and 5 mM glucose. Erythrocyte suspensions (100 μL) were added to 96-well round-bottom microplates and test compounds (1 μL) were added. After 15 min incubation, 20 μL of the erythrocyte suspension was added rapidly to each well containing 180 μL of PBS. Following vigorous mixing, erythrocyte lysis was quantified by absorbance at 710 nm. Non-lysed controls (isosmolar buffer) and lysed controls (0.7 mM phloretin) were added in each plate as negative and positive controls, respectively. Percentage erythrocyte lysis was computed as: % lysis=100% (Aneg−Atest)/(Aneg−Apos), where A is absorbance at 710 nm.
Inhibitor selectivity for rat UT-A1 versus UT-B was investigated using an erythrocyte lysis assay of rat UT-B urea transport, which involved measurement of hypotonic lysis (by near-infrared absorbance) of acetamide-loaded erythrocytes following rapid dilution into acetamide-free buffer.

| solubility (Solubility; read-out: solubility limit) [µM] | inhibition of transepithelial urea transport (UT-A1) [%] | selectivity for UT-A1 versus UT-B (rat UT-B; rat UT-A1 versus rat UT-B) | IC50 (rat UT-B; rat erythrocytes) [µM] | Compound | solubility (Solubility; in words, vehicle selection) |
| --- | --- | --- | --- | --- | --- |
| ~25 (≈ 8.34 µg/mL) | ~50 | high selectivity |  | CC(=O)Nc1ccc(-c2csc(-c3c[nH]c4ccccc34)n2)cc1 [UTA1inh-E02, N-(4-(2-(1H-indol-3-yl)thiazol-4-yl)phenyl)acetamide] | limited solubility |
| ~25 (≈ 10.8 µg/mL) | ~50 |  | 10 | COc1ccc(C)cc1S(=O)(=O)Nc1ccc(Cl)c(N2CCCS2(=O)=O)c1 [UTA1inh-F11, N-[4-Chloro-3-(1,1-dioxido-1,2-thiazolidin-2-yl)phenyl]-2-methoxy-5-methylbenzene-sulfonamide] | dissolved well in 20% dimethylacetamide, 0.6 mg/mL NaOH in saline |
